Measurements: US20260115331A1, “PET IMAGING OF BACTERIAL INFECTION WITH A PET PROBE” (Mayo Foundation for Medical Education and Research, priority 2022, published 2026)
Where two headings read alike, the source gives them in different places.

Experiments:
[1] = tested on: Methicillin-resistant Staphylococcus aureus (MRSA); format: in vivo, rats; conditions: for SUV (Average ± SD), Contralateral Tibia / SUV (Average ± SD), Infected Tibia / SUV (Average ± SD), Muscle: Osteomyelitis Foreign Body model
Experimental: (§1) The PET probe [^68Ga]Ga-H3P2O8 was evaluated in methicillin-resistant S. aureus (MRSA) foreign-body osteomyelitis in the left tibia with a stainless steel Kirschner wire (K-wire) implant in male Wister rats, following a previously established protocol [Ref. 17]. Briefly, a 1 cm incision was made on the medial tibia and the bone exposed. A 1.5 mm hole was drilled, 0.01 mL of arachidonic acid (a sclerosing agent) and 0.05 mL of a suspension containing MRSA DRL-6169 at 10^8 cfu/mL was injected into the bone. A 5 mm threaded stainless-steel K-wire was inserted. The hole was closed with dental gypsum and the site closed. After implantation, the muscle and fascia were closed with 3-0 vicryl using simple interrupted sutures. The skin was closed with sterile wound clips and VetBond. The wound was sprayed with Aluspray and Chew Guard. After 7 days of implantation of wire, the animal was put on iron-deficient diet for 7 days and on the day of imaging, the animals were fasted for 4 hours prior to the injection of the PET probe. [^68Ga]Ga-H3P2O8 (32.81±6.28 MBq, n=18) were injected into the rat model via tail vein injection. The rat model was either a normal rat model or an osteomyelitis foreign body rat model or an inflamed foreign body rat model. PET/CT images were acquired at 15 minutes, 30 minutes, 60 minutes, and 120 minutes post-injection using Siemens Inveon MicroPET/CT Scanner (see FIGS. 17, 18, and Table 2).
(§2) The acquired PET images were visualized and analyzed for quantifying standardized uptake value (SUV) using image analysis software—MIM 7 software and PMOD. Following final imaging at 120 minutes post-injection, the animal was euthanized, and major organs and infected and inflamed tibia were extracted for gamma counting for ex-vivo biodistribution analysis (see FIG. 22). At the end of last imaging session, rats were euthanized by cardiectomy, and the operated tibia with K-wire or contralateral tibia were aseptically removed. Following removal, tibias were weighed, and Ga-68 radioactivity was counted in 2480 Wizard2 automatic gamma counter for ex-vivo biodistribution assessment. The tibias were then frozen to −80° C. The frozen tibia from each animal was crushed aseptically using a bone pulverizer chilled at −80° C. The crushed tibia without K wire was weighed and vortexed in 1 mL sterile saline. The K wire was also vortexed in 1.0 mL sterile saline separately. The vortexed tibia and K-wire saline suspension were sonicated for 5 minutes. After sonication, 1:10 serial dilutions were prepared in saline and 0.1 mL of each dilution was plated in Trypticase Soy Agar plates with 5% Sheep Blood (TSA II). After 24 hours of incubation at 37° C., the bacterial cultures in tibia suspension and K-wire suspension were quantified. In the 2-week-old osteomyelitis model used in the study, the infected tibia contained 7.00±0.19 log10 cfu/g tibia (n=10) and 5.41±0.40 log10 cfu/K-wire (n=10).

E coli [2] = assay: Biodistribution in lung infected mice (E. coli) at 120 min post injection; format: in vivo
[3] = PET/CT image analysis (SUV) in normal rat model; format: in vivo, rats; conditions: for SUV (Average ± SD), Normal Tibia: Normal group
Experimental: as §1, §2

E coli [4] = assay: Biodistribution in thigh infected mice (E. coli) at 120 min post injection; format: in vivo; conditions: n = 4, 2 h post infection with E coli
Source text: The feasibility of the developed PET probe [^68Ga]Ga-H3P2O8 in a mouse model of thigh infection as well as uptake in E. coli has been evaluated. […] The biodistribution of developed PET probe in normal and in thigh infected mice has been assessed (see FIG. 11). […] Micro-PET imaging of normal and thigh-infected mice has also been performed. The site of bacterial infection was evident on micro-PET images (see FIG. 13) with arrows in contrast to the non-infected group of mice. The bacterial site of infection on micro-PET images was confirmed by bacterial culture performed on the biopsied sample. Micro-PET imaging was performed at different time intervals to optimize imaging time.

[5] = n = 3, 2 h post infection with E coli

Compound: O=P(O)(O)[O][Ga]1[O]P(=O)(O)[O]1 [[^68Ga]Ga-H3P2O8, [^68Ga]Ga-hydrogen bisphosphate]
- mean SUV in infected tibia compared with [^68Ga]Ga-Citrate or [^18F]FDG ([1]; MRSA infected tibia, after 60 minutes post injection, PET image analysis (FIG. 26)): significantly higher mean SUV
- SUV (Average ± SD), Contralateral Tibia ([1]; n = 5, 15 min post-injection): 0.76 ± 0.17 SUV
- SUV (Average ± SD), Infected Tibia ([1]; n = 5, 15 min post-injection): 1.82 ± 0.57 SUV
- SUV (Average ± SD), Muscle ([1]; n = 5, 15 min post-injection): 0.59 ± 0.14 SUV
- SUV (Average ± SD), Contralateral Tibia ([1]; n = 5, 30 min post-injection): 0.59 ± 0.12 SUV
- SUV (Average ± SD), Infected Tibia ([1]; n = 5, 30 min post-injection): 2.40 ± 0.49 SUV
- SUV (Average ± SD), Muscle ([1]; n = 5, 30 min post-injection): 0.58 ± 0.20 SUV
- SUV (Average ± SD), Contralateral Tibia ([1]; n = 5, 60 min post-injection): 0.60 ± 0.15 SUV
- SUV (Average ± SD), Infected Tibia ([1]; n = 5, 60 min post-injection): 2.87 ± 0.66 SUV
- SUV (Average ± SD), Muscle ([1]; n = 5, 60 min post-injection): 0.67 ± 0.18 SUV
- SUV (Average ± SD), Contralateral Tibia ([1]; n = 5, 120 min post-injection): 0.29 ± 0.18 SUV
- SUV (Average ± SD), Infected Tibia ([1]; n = 5, 120 min post-injection): 3.48 ± 0.25 SUV
- SUV (Average ± SD), Muscle ([1]; n = 5, 120 min post-injection): 0.76 ± 0.30 SUV
- SUV ± STD, Adipose (E coli [2]; [5]): 0.85 ± 0.64 SUV
- SUV ± STD, Bladder (E coli [2]; [5]): 3.11 ± 2.62 SUV
- SUV ± STD, Blood (E coli [2]; [5]): 2.09 ± 1.31 SUV
- SUV ± STD, Bone (E coli [2]; [5]): 2.70 ± 0.43 SUV
- SUV ± STD, Brain (E coli [2]; [5]): 0.05 ± 0.01 SUV
- SUV ± STD, Cecum (E coli [2]; [5]): 1.61 ± 1.29 SUV
- SUV ± STD, Eye (E coli [2]; [5]): 1.42 ± 1.91 SUV
- SUV ± STD, Feces (E coli [2]; [5]): 1.39 ± 1.10 SUV
- SUV ± STD, Gut (E coli [2]; [5]): 1.93 ± 0.40 SUV
- SUV ± STD, Heart (E coli [2]; [5]): 0.73 ± 0.07 SUV
- SUV ± STD, Kidney-1 (E coli [2]; [5]): 0.92 ± 0.24 SUV
- SUV ± STD, Kidney-2 (E coli [2]; [5]): 1.10 ± 0.09 SUV
- SUV ± STD, Liver (E coli [2]; [5]): 0.86 ± 0.08 SUV
- SUV ± STD, Lung-1 (E coli [2]; [5]): 2.98 ± 1.02 SUV
- SUV ± STD, Lung-2 (E coli [2]; [5]): 2.56 ± 1.82 SUV
- SUV ± STD, Normal Thigh (E coli [2]; [5]): 0.31 ± 0.18 SUV
- SUV ± STD, Skin (E coli [2]; [5]): 1.46 ± 0.41 SUV
- SUV ± STD, Spleen (E coli [2]; [5]): 0.73 ± 0.03 SUV
- SUV ± STD, Stomach (E coli [2]; [5]): 0.46 ± 0.07 SUV
- SUV ± STD, Adipose (E coli [2]; n = 4, 24 h post infection): 1.13 ± 0.34 SUV
- SUV ± STD, Bladder (E coli [2]; n = 4, 24 h post infection): 4.04 ± 5.22 SUV
- SUV ± STD, Blood (E coli [2]; n = 4, 24 h post infection): 2.75 ± 0.39 SUV
- SUV ± STD, Bone (E coli [2]; n = 4, 24 h post infection): 2.65 ± 1.75 SUV
- SUV ± STD, Brain (E coli [2]; n = 4, 24 h post infection): 0.11 ± 0.02 SUV
- SUV ± STD, Cecum (E coli [2]; n = 4, 24 h post infection): 1.59 ± 0.35 SUV
- SUV ± STD, Eye (E coli [2]; n = 4, 24 h post infection): 1.39 ± 1.17 SUV
- SUV ± STD, Feces (E coli [2]; n = 4, 24 h post infection): 0.71 ± 0.24 SUV
- SUV ± STD, Gut (E coli [2]; n = 4, 24 h post infection): 1.72 ± 0.31 SUV
- SUV ± STD, Heart (E coli [2]; n = 4, 24 h post infection): 1.04 ± 0.28 SUV
- SUV ± STD, Kidney-1 (E coli [2]; n = 4, 24 h post infection): 1.69 ± 0.66 SUV
- SUV ± STD, Kidney-2 (E coli [2]; n = 4, 24 h post infection): 1.44 ± 0.37 SUV
- SUV ± STD, Liver (E coli [2]; n = 4, 24 h post infection): 1.89 ± 0.47 SUV
- SUV ± STD, Lung-1 (E coli [2]; n = 4, 24 h post infection): 1.52 ± 0.29 SUV
- SUV ± STD, Lung-2 (E coli [2]; n = 4, 24 h post infection): 1.46 ± 0.51 SUV
- SUV ± STD, Normal Thigh (E coli [2]; n = 4, 24 h post infection): 0.33 ± 0.16 SUV
- SUV ± STD, Skin (E coli [2]; n = 4, 24 h post infection): 1.08 ± 0.42 SUV
- SUV ± STD, Spleen (E coli [2]; n = 4, 24 h post infection): 1.75 ± 0.56 SUV
- SUV ± STD, Stomach (E coli [2]; n = 4, 24 h post infection): 0.34 ± 0.13 SUV
- SUV (Average ± SD), Normal Tibia ([3]; n = 4, 15 min post-injection): 0.76 ± 0.03 SUV
- SUV (Average ± SD), Normal Tibia ([3]; n = 4, 30 min post-injection): 0.76 ± 0.09 SUV
- SUV (Average ± SD), Normal Tibia ([3]; n = 4, 60 min post-injection): 0.80 ± 0.09 SUV
- SUV (Average ± SD), Normal Tibia ([3]; n = 4, 120 min post-injection): 0.89 ± 0.16 SUV
- SUV (Average ± SD), Muscle in Normal group ([3]; n = 4, 15 min post-injection): 0.35 ± 0.10 SUV
- SUV (Average ± SD), Muscle in Normal group ([3]; n = 4, 30 min post-injection): 0.50 ± 0.12 SUV
- SUV (Average ± SD), Muscle in Normal group ([3]; n = 4, 60 min post-injection): 0.49 ± 0.10 SUV
- SUV (Average ± SD), Muscle in Normal group ([3]; n = 4, 120 min post-injection): 0.48 ± 0.09 SUV
- SUV ± STD, Adipose (E coli [4]; Adipose): 0.34 ± 0.34 SUV
- SUV ± STD, Bladder (E coli [4]; Bladder): 3.11 ± 3.0 SUV
- SUV ± STD, Blood (E coli [4]; Blood): 1.83 ± 0.20 SUV
- SUV ± STD, Bone (E coli [4]; Bone): 2.73 ± 1.12 SUV
- SUV ± STD, Brain (E coli [4]; Brain): 0.81 ± 1.5 SUV
- SUV ± STD, Cecum (E coli [4]; Cecum): 1.74 ± 0.55 SUV
- SUV ± STD, Eye (E coli [4]; Eye): 3.86 ± 1.71 SUV
- SUV ± STD, Feces (E coli [4]; Feces): 0.93 ± 0.43 SUV
- SUV ± STD, Gut (E coli [4]; Gut): 1.78 ± 0.10 SUV
- SUV ± STD, Heart (E coli [4]; Heart): 0.61 ± 0.14 SUV
- SUV ± STD, Infected Thigh (E coli [4]; Infected Thigh): 1.12 ± 0.43 SUV
- SUV ± STD, Kidney-1 (E coli [4]; Kidney-1): 3.24 ± 1.19 SUV
- SUV ± STD, Kidney-2 (E coli [4]; Kidney-2): 3.28 ± 2.10 SUV
- SUV ± STD, Liver (E coli [4]; Liver): 2.02 ± 0.89 SUV
- SUV ± STD, Lung-1 (E coli [4]; Lung-1): 2.13 ± 0.54 SUV
- SUV ± STD, Lung-2 (E coli [4]; Lung-2): 3.03 ± 0.53 SUV
- SUV ± STD, Normal Thigh (E coli [4]; Normal Thigh): 0.25 ± 0.05 SUV
- SUV ± STD, Skin (E coli [4]; Skin): 0.88 ± 0.63 SUV
- SUV ± STD, Spleen (E coli [4]; Spleen): 0.80 ± 0.69 SUV
- SUV ± STD, Stomach (E coli [4]; Stomach): 0.48 ± 0.14 SUV
